Assay results as given in patent US9550782B2, “Compounds and methods for treating diabetes” (Medivation Technologies, Inc., priority 2011, dated 2017).
Where two headings read alike, the source gives them in different places.

Assays:
[1] = molecular target: T1, rat adrenergic α1B receptor (Rattus norvegicus, UniProt P15823); assay: Radioligand binding, adrenergic α1B ([3H]Prazosin); set-up: species or system Wistar Rat; settings: for Percentage inhibition of ligand binding, Adrenergic α1B (0.1 μM): repeat datapoints each shown
T1 construct: rat adrenergic α1B receptor obtained from Wistar Rat liver; from tissue; host or cells: Wistar rat liver
T1 sequence (P15823 1-515): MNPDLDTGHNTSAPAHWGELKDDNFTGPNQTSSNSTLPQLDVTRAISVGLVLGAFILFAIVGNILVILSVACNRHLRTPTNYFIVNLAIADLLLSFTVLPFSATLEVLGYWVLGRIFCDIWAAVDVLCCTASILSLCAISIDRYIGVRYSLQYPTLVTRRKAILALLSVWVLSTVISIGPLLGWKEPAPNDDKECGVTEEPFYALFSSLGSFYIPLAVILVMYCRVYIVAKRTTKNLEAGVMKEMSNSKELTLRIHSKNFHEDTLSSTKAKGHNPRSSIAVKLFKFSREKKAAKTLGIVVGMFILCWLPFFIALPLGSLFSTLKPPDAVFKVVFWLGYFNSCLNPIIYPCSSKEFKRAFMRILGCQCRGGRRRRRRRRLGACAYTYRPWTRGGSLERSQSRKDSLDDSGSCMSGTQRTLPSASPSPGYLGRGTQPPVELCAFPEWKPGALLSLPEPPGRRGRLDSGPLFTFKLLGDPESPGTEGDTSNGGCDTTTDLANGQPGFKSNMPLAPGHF
Outline: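 Filter binding with Wistar rat liver α1B preparation: test compound plus 0.25 nM [3H]prazosin, 1 h at 25° C in modified Tris-HCl buffer pH 7.4.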

[2] = molecular target: T2, human recombinant adrenergic α2B receptor (Homo sapiens, UniProt P18089); assay: Radioligand binding, adrenergic α2B ([3H]Rauwolscine)
T2 construct: expressed in transfected cells; host or cells: CHO-K1
T2 sequence (P18089 1-450): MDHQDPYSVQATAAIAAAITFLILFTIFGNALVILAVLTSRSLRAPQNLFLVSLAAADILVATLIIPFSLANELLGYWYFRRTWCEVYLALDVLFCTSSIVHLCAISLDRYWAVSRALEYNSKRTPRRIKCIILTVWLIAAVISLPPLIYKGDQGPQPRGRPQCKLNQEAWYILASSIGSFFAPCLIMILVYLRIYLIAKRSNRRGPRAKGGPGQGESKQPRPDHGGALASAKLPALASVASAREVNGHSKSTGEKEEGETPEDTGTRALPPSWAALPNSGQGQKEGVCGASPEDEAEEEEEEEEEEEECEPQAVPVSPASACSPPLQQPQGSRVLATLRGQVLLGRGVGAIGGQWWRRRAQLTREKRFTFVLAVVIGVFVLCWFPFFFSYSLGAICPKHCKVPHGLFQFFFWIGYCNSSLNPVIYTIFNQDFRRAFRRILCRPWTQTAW
Outline: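 Assay used CHO-K1-expressed human α2B receptor in Tris-HCl pH 7.4 buffer with MgCl2, EDTA and BSA; 60 min incubation at 25 °C.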

[3] = molecular target: T3, human recombinant adrenergic α1D receptor (Homo sapiens, UniProt P25100); assay: Radioligand binding, adrenergic α1D ([3H]Prazosin); settings: compound at 0.1 μM; for Percentage inhibition of ligand binding, Adrenergic α1D (0.1 μM): repeat datapoints each shown
T3 construct: expressed in transfected cells; host or cells: HEK-293
T3 sequence (P25100 1-572): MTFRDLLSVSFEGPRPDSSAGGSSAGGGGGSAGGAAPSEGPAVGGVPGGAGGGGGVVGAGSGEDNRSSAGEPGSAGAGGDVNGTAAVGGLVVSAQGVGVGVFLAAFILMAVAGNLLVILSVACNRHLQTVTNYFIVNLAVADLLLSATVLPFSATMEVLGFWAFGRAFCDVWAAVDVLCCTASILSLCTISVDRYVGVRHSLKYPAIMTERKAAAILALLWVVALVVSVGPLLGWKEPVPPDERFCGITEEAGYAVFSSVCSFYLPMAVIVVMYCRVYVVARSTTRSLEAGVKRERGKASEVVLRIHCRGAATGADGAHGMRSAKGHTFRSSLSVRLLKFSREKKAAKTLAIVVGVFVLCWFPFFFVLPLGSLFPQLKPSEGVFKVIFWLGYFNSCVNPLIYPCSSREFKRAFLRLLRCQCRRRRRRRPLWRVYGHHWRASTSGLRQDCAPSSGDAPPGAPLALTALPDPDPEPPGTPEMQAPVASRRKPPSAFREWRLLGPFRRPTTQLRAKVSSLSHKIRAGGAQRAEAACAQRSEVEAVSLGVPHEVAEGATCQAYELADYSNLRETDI
Procedure: Compounds were incubated with 0.6 nM [^3H]Prazosin for 60 min at 25° C. Non-specific binding was estimated in the presence of 10 μM phentolamine. Receptor proteins were filtered and washed, the filters were then counted to determine [^3H]Prazosin specifically bound. […] Biochemical assay results are presented as the percent inhibition of specific binding in Table B1.

[4] = molecular target: T4, human recombinant adrenergic α2A receptor (Homo sapiens, UniProt P08913); assay: Radioligand binding, adrenergic α2A ([3H]MK-912); settings: [3H]MK-912
T4 construct: expressed in transfected cells; host or cells: insect Sf9 cells
T4 sequence (P08913 1-465): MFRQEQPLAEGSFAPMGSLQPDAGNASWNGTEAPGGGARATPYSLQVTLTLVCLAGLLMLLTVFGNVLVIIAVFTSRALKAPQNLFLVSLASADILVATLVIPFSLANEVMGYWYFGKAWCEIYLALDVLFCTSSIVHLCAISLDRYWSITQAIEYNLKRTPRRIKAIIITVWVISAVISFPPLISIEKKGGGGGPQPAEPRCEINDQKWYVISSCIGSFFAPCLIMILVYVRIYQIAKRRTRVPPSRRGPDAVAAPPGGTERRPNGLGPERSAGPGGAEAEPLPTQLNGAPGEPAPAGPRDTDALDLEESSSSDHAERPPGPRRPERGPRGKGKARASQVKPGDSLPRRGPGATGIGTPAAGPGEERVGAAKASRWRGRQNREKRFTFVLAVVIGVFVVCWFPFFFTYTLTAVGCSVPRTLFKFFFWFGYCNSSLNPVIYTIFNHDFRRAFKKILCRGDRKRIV
Outline: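 Receptor expressed in insect Sf9 cells, assayed in 50 mM Tris-HCl pH 7.4 with 12.5 mM MgCl2 and 2 mM EDTA. Compounds incubated with 1 nM [3H]MK-912 for 60 min at 25 °C; nonspecific binding defined with 10 μM WB-4101. Filter-bound radioactivity counted; values are percent inhibition of specific binding.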

[5] = compound at 0.1 μM, repeat datapoints each shown, 0.1 µM
[6] = compound at 0.1 μM, repeat datapoints each shown

`CCCCC(O)(Cn1c2c(c3cc(Cl)ccc31)CN(C)CC2)c1ccc(F)cc1` (single isomer, unassigned) [33a] was tested, and the “Percentage inhibition of ligand binding, Adrenergic α1B (0.1 μM)” value ([1]; compound at 0.1 μM, 0.1 µM) was −2%, the “Percentage inhibition of ligand binding, Adrenergic α2B (0.1 μM)” value [2, 5] was −3% and the “Percentage inhibition of ligand binding, Adrenergic α1D (0.1 μM)” value ([3]; 0.1 µM) was 23%.

With `CCCCC(O)(Cn1c2c(c3cc(Cl)ccc31)CN(C)CC2)c1ccc(F)cc1` (single isomer, unassigned) [33b] the “Percentage inhibition of ligand binding, Adrenergic α1B (0.1 μM)” value ([1]; compound at 0.1 μM, 0.1 µM) was 0%, the “Percentage inhibition of ligand binding, Adrenergic α2A (0.1 μM)” value [4, 6] was −7% and the “Percentage inhibition of ligand binding, Adrenergic α2B (0.1 μM)” value [2, 5] was 2%. For the same compound, the “Percentage inhibition of ligand binding, Adrenergic α1D (0.1 μM)” value ([3]; 0.1 µM) was 14%.

For `CCC(O)(Cn1c2c(c3cc(C)ccc31)CN(C)CC2)c1ccc(F)cc1` (single isomer, unassigned) [34b], the “Percentage inhibition of ligand binding, Adrenergic α1B (0.1 μM)” value ([1]; compound at 0.1 μM, 0.1 µM) was −2%, the “Percentage inhibition of ligand binding, Adrenergic α2A (0.1 μM)” value [4, 5] was 3% and the “Percentage inhibition of ligand binding, Adrenergic α2B (0.1 μM)” value [2, 5] was 1%. For the same compound, the “Percentage inhibition of ligand binding, Adrenergic α1D (0.1 μM)” value ([3]; 0.1 µM) was 13%.

With `CC(Cn1c2c(c3ccccc31)CN(C)CC2)c1ccc(F)cc1` (single isomer, unassigned) [272a] the “Percentage inhibition of ligand binding, Adrenergic α1B” value ([1]; compound at 0.1 μM, 0.1 µM) was 27%, the “Percentage inhibition of ligand binding, Adrenergic α2A” value ([4]; compound at 0.1 μM, 0.1 µM) was 33% and the “Percentage inhibition of ligand binding, Adrenergic α2B” value ([2]; compound at 0.1 μM) was −10%. For the same compound, the “Percentage inhibition of ligand binding, Adrenergic α1D” value ([3]; 0.1 µM) was 12%.

With `CC(Cn1c2c(c3ccccc31)CN(C)CC2)c1ccc(F)cc1` (single isomer, unassigned) [272b] the “Percentage inhibition of ligand binding, Adrenergic α1B” value ([1]; compound at 0.1 μM, 0.1 µM) was 30%, the “Percentage inhibition of ligand binding, Adrenergic α2A” value ([4]; compound at 0.1 μM, 0.1 µM) was 68% and the “Percentage inhibition of ligand binding, Adrenergic α1D” value ([3]; 0.1 µM) was 36%.

For `Cc1ccc2c(c1)c1c(n2CC(C)c2ccc(F)cc2)CCN(C)C1` (single isomer, unassigned) [288a], the “Percentage inhibition of ligand binding, Adrenergic α2B” value ([2]; compound at 0.1 μM) was 104% and the “Percentage inhibition of ligand binding, Adrenergic α1D” value ([3]; 0.1 µM) was 88%.

`Cc1ccc2c(c1)c1c(n2CC(C)c2ccc(F)cc2)CCN(C)C1` (single isomer, unassigned) [288b] was tested, and the “Percentage inhibition of ligand binding, Adrenergic α1B” value ([1]; compound at 0.1 μM) was 39%, the “Percentage inhibition of ligand binding, Adrenergic α2A” value ([4]; compound at 0.1 μM) was 67% and the “Percentage inhibition of ligand binding, Adrenergic α1D” value ([3]; 0.1 µM) was 17%.

In the case of `Cc1ccc2c(c1)c1c(n2CC(C)c2ccc(C)nc2)CCN(C)C1` (single isomer, unassigned) [289a], the “Percentage inhibition of ligand binding, Adrenergic α1B” value ([1]; compound at 0.1 μM, 0.1 µM) was 51%, the “Percentage inhibition of ligand binding, Adrenergic α2A” value ([4]; compound at 0.1 μM, 0.1 µM) was 60% and the “Percentage inhibition of ligand binding, Adrenergic α1D” value ([3]; 0.1 µM) was 57%.

In the case of `Cc1ccc2c(c1)c1c(n2CC(C)c2ccc(C)nc2)CCN(C)C1` (single isomer, unassigned) [289b], the “Percentage inhibition of ligand binding, Adrenergic α1B” value ([1]; compound at 0.1 μM, 0.1 µM) was 12%, the “Percentage inhibition of ligand binding, Adrenergic α2A” value ([4]; compound at 0.1 μM, 0.1 µM) was 53% and the “Percentage inhibition of ligand binding, Adrenergic α2B” value ([2]; compound at 0.1 μM) was 54%. For the same compound, the “Percentage inhibition of ligand binding, Adrenergic α1D” value ([3]; 0.1 µM) was −2%.

With `CCC(O)(Cn1c2c(c3cc(C)ccc31)CN(C)CC2)c1ccncc1` (stereo not shown) [35a] the “Percentage inhibition of ligand binding, Adrenergic α1B (0.1 μM)” value ([1]; compound at 0.1 μM) was 9%, the “Percentage inhibition of ligand binding, Adrenergic α2A (0.1 μM)” value [4, 6] was 20% and the “Percentage inhibition of ligand binding, Adrenergic α2B (0.1 μM)” value [2, 6] was 62%. The “Percentage inhibition of ligand binding, Adrenergic α1D (0.1 μM)” value [3] was 6%.

With `Cc1ccc2c(c1)c1c(n2C(C)C(O)c2ccncc2)CCN(C)C1` (stereo not shown) [127b] the “Percentage inhibition of ligand binding, Adrenergic α1B” value ([1]; 0.1 μM compound) was 13%, the “Percentage inhibition of ligand binding, Adrenergic α2A” value ([4]; 0.1 μM compound) was 4% and the “Percentage inhibition of ligand binding, Adrenergic α2B” value ([2]; 0.03 μM compound, 0.03 µM) was 1%.

In the case of `Cc1ccc2c(c1)c1c(n2CC(C)(O)c2cccnc2)CNCC1` (stereo not shown) [128b], the “Percentage inhibition of ligand binding, Adrenergic α1B” value ([1]; 0.1 μM compound, 0.1 µM) was 45%, the “Percentage inhibition of ligand binding, Adrenergic α2A” value ([4]; 0.1 μM compound, 0.1 µM) was 22% and the “Percentage inhibition of ligand binding, Adrenergic α2B” value ([2]; 0.03 μM compound, 0.03 µM) was 54%.

For `Cc1ccc2c(c1)c1c(n2CC(O)c2ccncc2C)CCN(C)C1` (stereo not shown) [133a], the “Percentage inhibition of ligand binding, Adrenergic α1B” value ([1]; 0.1 μM compound, 0.1 µM) was 57%, the “Percentage inhibition of ligand binding, Adrenergic α2A” value ([4]; 0.1 μM compound, 0.1 µM) was 13% and the “Percentage inhibition of ligand binding, Adrenergic α2B” value ([2]; 0.03 μM compound, 0.03 µM) was 52%.

In the case of `Cc1ccc2c(c1)c1c(n2CC(O)c2cn[nH]c2)CCN(C)C1` (stereo not shown) [II-106b], the “Percentage inhibition of ligand binding, Adrenergic α1B (0.1 μM)” value ([1]; compound at 0.1 μM) was 31%, the “Percentage inhibition of ligand binding, Adrenergic α2A (0.1 μM)” value [4, 6] was 8% and the “Percentage inhibition of ligand binding, Adrenergic α2B (0.03 μM)” value ([2]; compound at 0.03 μM, repeat datapoints each shown) was 36%.

For `Cc1ccc2c(c1)c1c(n2CC(O)c2ccc(C#N)cc2)CCNC1` (stereo not shown) [II-116], the inhibition at 0.1 µM ([1]; read-out: Percentage inhibition of ligand binding, Adrenergic α1B (0.1 μM), compound at 0.1 μM, repeat datapoints each shown) was 4%, the inhibition at 0.1 µM ([4]; read-out: Percentage inhibition of ligand binding, Adrenergic α2A (0.1 μM), compound at 0.1 μM, repeat datapoints each shown) was 3% and the inhibition at 0.03 µM ([2]; read-out: Percentage inhibition of ligand binding, Adrenergic α2B (0.03 μM), compound at 0.03 μM, repeat datapoints each shown) was 43%.

`Cc1ccc2c(c1)c1c(n2CC(N)c2ccncc2)CC2CCC1N2C` (stereo not shown) [compound 155] showed an inhibition at 0.1 µM ([1]; 0.1 μM compound, read-out: Percentage inhibition of ligand binding, Adrenergic α1B) of 15%, an inhibition at 0.1 µM ([4]; 0.1 μM compound, read-out: Percentage inhibition of ligand binding, Adrenergic α2A) of 14% and an inhibition at 0.03 µM ([2]; 0.03 μM compound, read-out: Percentage inhibition of ligand binding, Adrenergic α2B) of 36%.
